Legend:
Assay type in all cases: in vivo
Thrips tabaci = Thrips tabaci (onion thrips) feeding/contact activity, sunflower leaf discs; settings: foliar, 144 h, application rate of 200 ppm, mixed ages, 6 days after infestation
Method: Thrips tabaci (Onion Thrips) Feeding/Contact Activity
Sunflower leaf discs were placed on agar in 24-well microtiter plates and sprayed with aqueous test solutions prepared from 10′000 ppm DMSO stock solutions. After drying the leaf discs were infested with a thrips population of mixed ages. The samples were assessed for mortality 6 days after infestation.

Euschistus heros = Euschistus heros (neotropical brown stink bug), soybean leaves sprayed, N2 nymphs; settings: 120 h, application rate of 200 ppm, 5 days after infestation, read-out: effect in at least one of the two categories (mortality or growth inhibition)
Method: Euschistus heros (Neotropical Brown Stink Bug)
Soybean leaves on agar in 24-well microtiter plates were sprayed with aqueous test solutions prepared from 10′000 ppm DMSO stock solutions. After drying the leaves were infested with N2 nymphs. The samples were assessed for mortality and growth inhibition in comparison to untreated samples 5 days after infestation.
(§1) The following compounds gave an effect of at least 80% in at least one of the two categories (mortality or growth inhibition) at an application rate of 200 ppm: […]

Diabrotica balteata = Diabrotica balteata (corn root worm), maize sprouts sprayed, L2 larvae; settings: 96 h, application rate of 200 ppm, 4 days after infestation, read-out: effect in at least one of the two categories (mortality or growth inhibition)
Method: Diabrotica balteata (Corn Root Worm)
Maize sprouts placed onto an agar layer in 24-well microtiter plates were treated with aqueous test solutions prepared from 10′000 ppm DMSO stock solutions by spraying. After drying, the plates were infested with L2 larvae (6 to 10 per well). The samples were assessed for mortality and growth inhibition in comparison to untreated samples 4 days after infestation.
as §1

Myzus persicae = Myzus persicae (green peach aphid): feeding/contact activity, sunflower leaf discs; settings: foliar, 144 h, application rate of 200 ppm, mixed ages, 6 days after infestation
Method: Myzus persicae (Green Peach Aphid): Feeding/Contact Activity
Sunflower leaf discs were placed onto agar in a 24-well microtiter plate and sprayed with aqueous test solutions prepared from 10′000 ppm DMSO stock solutions. After drying, the leaf discs were infested with an aphid population of mixed ages. The samples were assessed for mortality 6 days after infestation.

Spodoptera littoralis = Spodoptera littoralis (Egyptian cotton leaf worm), cotton leaf discs sprayed, L1 larvae; settings: foliar, 72 h, application rate of 200 ppm, 3 days after infestation, read-out: control (mortality, anti-feeding effect, growth inhibition)
Method: Spodoptera littoralis (Egyptian Cotton Leaf Worm)
Cotton leaf discs were placed onto agar in 24-well microtiter plates and sprayed with aqueous test solutions prepared from 10′000 ppm DMSO stock solutions. After drying the leaf discs were infested with five L1 larvae. The samples were assessed for mortality, anti-feeding effect, and growth inhibition in comparison to untreated samples 3 days after infestation. Control of Spodoptera littoralis by a test sample is given when at least one of the categories mortality, anti-feedant effect, and growth inhibition is higher than the untreated sample.

Compound | mortality at 200 ppm (Thrips tabaci) [%] | percent effect (mortality or growth inhibition) at 200 ppm (Euschistus heros) [%] | percent effect (mortality or growth inhibition) at 200 ppm (Diabrotica balteata) [%] | mortality at 200 ppm (Myzus persicae) [%] | mortality at 200 ppm (Spodoptera littoralis) [%]
Cn1ccc2n1c(=O)c(-c1cccc(C(F)(F)F)c1)c([O-])[n+]2CCC#N [Compound B2, 4-(2-cyanoethyl)-1-methyl-7-oxo-6-[3-(trifluoromethyl)phenyl]pyrazolo[1,5-a]pyrimidin-4-ium-5-olate] | ≥ 80 | ≥ 80 | ≥ 80 |  | 
Cn1ccc2n1c(=O)c(-c1cc(Cl)cc(Cl)c1)c([O-])[n+]2CCn1cncn1 [Compound B21] |  |  |  | ≥ 80 | 
Cn1ccc2n1c(=O)c(-c1cc(Cl)cc(Cl)c1)c([O-])[n+]2Cc1cnc(Cl)s1 [Compound A1, 4-[(2-chlorothiazol-5-yl)methyl]-6-(3,5-dichlorophenyl)-1-methyl-7-oxo-pyrazolo[1,5-a]pyrimidin-4-ium-5-olate] |  |  | ≥ 80 |  | ≥ 80
